Measurements from patent US11247972B2, “Compositions and methods for treating toxoplasmosis, cryptosporidiosis, and other apicomplexan protozoan related diseases” (University of Washington through its Center for …, priority 2010, dated 2022).

Legend:
[1] = biological target: PfCDPK1 (Plasmodium falciparum (isolate 3D7), UniProt P62344); experiment: biochemical; details: read-out: PfCDPK1 (% inhibition @ 3 uM)
[2] = biological target: PfCDPK4 (Plasmodium falciparum (isolate 3D7), UniProt Q8IBS5); experiment: biochemical; details: read-out: PfCDPK4 (% inhibition @ 3 uM)

In the case of `CC(C)n1nc(-c2cccc3ccccc23)c2c(N)ncnc21` [Compound 7o, 1-isopropyl-3-(naphthalen-1-yl)-1H-pyrazolo[3,4-d]pyrimidin-4-amine], the inhibition at 3 µM [1] is reported as 58% and the inhibition at 3 µM [2] is reported as 79%.

`CC(C)n1nc(-c2ccc3ccccc3c2)c2c(N)ncnc21` [Compound 7p, 1-isopropyl-3-(naphthalen-2-yl)-1H-pyrazolo[3,4-d]pyrimidin-4-amine] showed an inhibition at 3 µM [1] of 95% and an inhibition at 3 µM [2] of 98%.

`CCOc1ccc2cc(-c3nn(C(C)C)c4ncnc(N)c34)ccc2c1` [Compound 7r, 3-(6-ethoxynaphthalen-2-yl)-1-isopropyl-1H-pyrazolo[3,4-d]pyrimidin-4-amine] showed an inhibition at 3 µM [1] of 94% and an inhibition at 3 µM [2] of 99%.

`COc1cc2ccccc2cc1-c1nn(C(C)C)c2ncnc(N)c12` [Compound 7s, 1-isopropyl-3-(3-methoxynaphthalen-2-yl)-1H-pyrazolo[3,4-d]pyrimidin-4-amine] showed an inhibition at 3 µM [1] of 53% and an inhibition at 3 µM [2] of 20%.

Compound `CC(C)n1nc(-c2ccc3c(c2)OCO3)c2c(N)ncnc21` [Compound 7u, 3-(benzo[d][1,3]dioxol-5-yl)-1-isopropyl-1H-pyrazolo[3,4-d]pyrimidin-4-amine] has an inhibition at 3 µM [1] of 94% and an inhibition at 3 µM [2] of 77%.

In the case of `CC(C)n1nc(-c2cccc(-c3ccccc3)c2)c2c(N)ncnc21` [Compound 7z, 3-(biphenyl-3-yl)-1-isopropyl-1H-pyrazolo[3,4-d]pyrimidin-4-amine], the inhibition at 3 µM [1] is reported as 79% and the inhibition at 3 µM [2] is reported as 21%.

In the case of `CC(C)c1nc(-c2ccc3ccccc3c2)c2c(N)nccn12` [Compound 8, 3-isopropyl-1-(naphthalen-2-yl)imidazo[1,5-a]pyrazin-8-amine], the inhibition at 3 µM [1] is reported as 92% and the inhibition at 3 µM [2] is reported as 92%.

In the case of `CC(C)c1nc(-c2cnc3ccccc3c2)c2c(N)nccn12` [Compound 9, 3-isopropyl-1-(quinolin-3-yl)imidazo[1,5-a]pyrazin-8-amine], the inhibition at 3 µM [1] is reported as 76% and the inhibition at 3 µM [2] is reported as 88%.

Work on `CCOc1ccc2cc(-c3nc(C(C)C)n4ccnc(N)c34)ccc2c1` [Compound 10, 1-(6-ethoxynaphthalen-2-yl)-3-isopropylimidazo[1,5-a]pyrazin-8-amine] yielded an inhibition at 3 µM [1] of 93% and an inhibition at 3 µM [2] of 94%.

With `CC(C)Oc1ccc2cc(-c3nn(C(C)C)c4ncnc(N)c34)ccc2c1` [Compound 11, 3-(6-isopropoxynaphthalen-2-yl)-1-isopropyl-1H-pyrazolo[3,4-d]pyrimidin-4-amine] the inhibition at 3 µM [1] was 93% and the inhibition at 3 µM [2] was 87%.

In the case of `CCCOc1ccc2cc(-c3nn(C(C)C)c4ncnc(N)c34)ccc2c1` [Compound 12, 1-isopropyl-3-(6-propoxynaphthalen-2-yl)-1H-pyrazolo[3,4-d]pyrimidin-4-amine], the inhibition at 3 µM [1] is reported as 95% and the inhibition at 3 µM [2] is reported as 91%.

`Nc1ncnc2c1c(Cc1cccc3ccccc13)nn2CC1CCCCC1` [Compound 17, 1-(cyclohexylmethyl)-3-(naphthalen-1-ylmethyl)-1H-pyrazolo[3,4-d]pyrimidin-4-amine] gave an inhibition at 3 µM [1] of 44% and an inhibition at 3 µM [2] of 5%.

`CC(C)n1nc(-c2cccc(OCc3ccccc3Cl)c2)c2c(N)ncnc21` [Compound 21, 3-(3-(2-chlorobenzyloxy)phenyl)-1-isopropyl-1H-pyrazolo[3,4-d]pyrimidin-4-amine] gave an inhibition at 3 µM [1] of 68% and an inhibition at 3 µM [2] of 9%.

With `COc1cc(COc2cccc(-c3nn(C(C)C)c4ncnc(N)c34)c2)cc(OC)c1` [Compound 22, 3-(3-(3,5-dimethoxybenzyloxy)phenyl)-1-isopropyl-1H-pyrazolo[3,4-d]pyrimidin-4-amine] the inhibition at 3 µM [1] was 71% and the inhibition at 3 µM [2] was 9%.

`COc1ccc(-c2nn(C(C)C)c3ncnc(N)c23)cc1OC(C)C` [Compound 23, 3-(3-isopropoxy-4-methoxyphenyl)-1-isopropyl-1H-pyrazolo[3,4-d]pyrimidin-4-amine] showed an inhibition at 3 µM [1] of 75% and an inhibition at 3 µM [2] of 11%.

For `COc1ccc2cc(-c3nn(CC4CCNCC4)c4ncnc(N)c34)ccc2c1` [Compound 28, 3-(6-methoxynaphthalen-2-yl)-1-(piperidin-4-ylmethyl)-1H-pyrazolo[3,4-d]pyrimidin-4-amine], the inhibition at 3 µM [1] was 92% and the inhibition at 3 µM [2] was 99%.

`Nc1ncnc2c1c(-c1cnc3ccccc3c1)nn2CC1CCNCC1` [Compound 30, 1-(piperidin-4-ylmethyl)-3-(quinolin-3-yl)-1H-pyrazolo[3,4-d]pyrimidin-4-amine] was tested, and the inhibition at 3 µM [1] was 82% and the inhibition at 3 µM [2] was 86%.

Compound `Nc1ncnc2c1c(Cc1cccc3ccccc13)nn2Cc1c[nH]cn1` [Compound 31, 1-((1H-imidazol-4-yl)methyl)-3-(naphthalen-1-ylmethyl)-1H-pyrazolo[3,4-d]pyrimidin-4-amine] has an inhibition at 3 µM [1] of 51% and an inhibition at 3 µM [2] of 40%.

For `Nc1ncnc2c1c(-c1ccc3cc(OCc4ccc(Cl)cc4)ccc3c1)nn2CC1CCNCC1` [Compound 39, 3-(6-(4-chlorobenzyloxy)naphthalen-2-yl)-1-(piperidin-4-ylmethyl)-1H-pyrazolo[3,4-d]pyrimidin-4-amine], the inhibition at 3 µM [1] was 102% and the inhibition at 3 µM [2] was 98%.

In the case of `CC(C)n1nc(-c2ccc3cc(OCc4ccccc4)ccc3c2)c2c(N)ncnc21` [Compound 40, 3-(6-(benzyloxy)naphthalen-2-yl)-1-isopropyl-1H-pyrazolo[3,4-d]pyrimidin-4-amine], the inhibition at 3 µM [1] is reported as 101% and the inhibition at 3 µM [2] is reported as 84%.

Compound `C=CCOc1ccc2cc(-c3nn(C(C)C)c4ncnc(N)c34)ccc2c1` [Compound 41, 3-(6-(allyloxy)naphthalen-2-yl)-1-isopropyl-1H-pyrazolo[3,4-d]pyrimidin-4-amine] has an inhibition at 3 µM [1] of 101% and an inhibition at 3 µM [2] of 98%.

For `CCCCOc1ccc2cc(-c3nn(C(C)C)c4ncnc(N)c34)ccc2c1` [Compound 42, 3-(6-butoxynaphthalen-2-yl)-1-isopropyl-1H-pyrazolo[3,4-d]pyrimidin-4-amine], the inhibition at 3 µM [1] was 101% and the inhibition at 3 µM [2] was 94%.

`CC(C)COc1ccc2cc(-c3nn(C(C)C)c4ncnc(N)c34)ccc2c1` [Compound 43, 3-(6-isobutoxynaphthalen-2-yl)-1-isopropyl-1H-pyrazolo[3,4-d]pyrimidin-4-amine] was tested, and the inhibition at 3 µM [1] was 100% and the inhibition at 3 µM [2] was 78%.

For `CC(C)COc1ccc2cc(-c3nn(CC4CCNCC4)c4ncnc(N)c34)ccc2c1` [Compound 44, 3-(6-isobutoxynaphthalen-2-yl)-1-(piperidin-4-ylmethyl)-1H-pyrazolo[3,4-d]pyrimidin-4-amine], the inhibition at 3 µM [1] was 100% and the inhibition at 3 µM [2] was 97%.

For `Nc1ncnc2c1c(-c1ccc(Cl)cc1)nn2CC1CCNCC1` [Compound 45, 3-(4-chlorophenyl)-1-(piperidin-4-ylmethyl)-1H-pyrazolo[3,4-d]pyrimidin-4-amine], the inhibition at 3 µM [1] was 101% and the inhibition at 3 µM [2] was 82%.

`CC(C)n1nc(-c2ccc3cc(OCc4ccccc4Cl)ccc3c2)c2c(N)ncnc21` [Compound 46, 3-(6-(2-chlorobenzyloxy)naphthalen-2-yl)-1-isopropyl-1H-pyrazolo[3,4-d]pyrimidin-4-amine] gave an inhibition at 3 µM [1] of 95% and an inhibition at 3 µM [2] of 52%.

Work on `CC(C)n1nc(-c2ccc3cc(OCc4cccc(Cl)c4)ccc3c2)c2c(N)ncnc21` [Compound 47, 3-(6-(3-chlorobenzyloxy)naphthalen-2-yl)-1-isopropyl-1H-pyrazolo[3,4-d]pyrimidin-4-amine] yielded an inhibition at 3 µM [1] of 91% and an inhibition at 3 µM [2] of 51%.

`Cc1ccc(C)c(COc2ccc3cc(-c4nn(C(C)C)c5ncnc(N)c45)ccc3c2)c1` [Compound 48, 3-(6-(2,5-dimethylbenzyloxy)naphthalen-2-yl)-1-isopropyl-1H-pyrazolo[3,4-d]pyrimidin-4-amine] gave an inhibition at 3 µM [1] of 84% and an inhibition at 3 µM [2] of 10%.

In the case of `Cc1ccccc1COc1ccc2cc(-c3nn(C(C)C)c4ncnc(N)c34)ccc2c1` [Compound 49, 1-isopropyl-3-(6-(2-methylbenzyloxy)naphthalen-2-yl)-1H-pyrazolo[3,4-d]pyrimidin-4-amine], the inhibition at 3 µM [1] is reported as 88% and the inhibition at 3 µM [2] is reported as 22%.

In the case of `Cc1ccc(C(F)(F)F)cc1COc1ccc2cc(-c3nn(C(C)C)c4ncnc(N)c34)ccc2c1` [Compound 50, 1-isopropyl-3-(6-(2-methyl-5-(trifluoromethyl)benzyloxy)naphthalen-2-yl)-1H-pyrazolo[3,4-d]pyrimidin-4-amine], the inhibition at 3 µM [1] is reported as 83% and the inhibition at 3 µM [2] is reported as 26%.

Work on `CC(C)n1nc(-c2ccc3cc(OCc4ccc(CC(F)(F)F)c(Cl)c4)ccc3c2)c2c(N)ncnc21` [Compound 51, 3-(6-(3-chloro-4-(2,2,2-trifluoroethyl)benzyloxy)naphthalen-2-yl)-1-isopropyl-1H-pyrazolo[3,4-d]pyrimidin-4-amine] yielded an inhibition at 3 µM [1] of 86% and an inhibition at 3 µM [2] of 92%.

In the case of `CC(C)n1nc(-c2ccc3cc(OCc4cc(F)cc(Cl)c4)ccc3c2)c2c(N)ncnc21` [Compound 52, 3-(6-(3-chloro-5-fluorobenzyloxy)naphthalen-2-yl)-1-isopropyl-1H-pyrazolo[3,4-d]pyrimidin-4-amine], the inhibition at 3 µM [1] is reported as 93% and the inhibition at 3 µM [2] is reported as 62%.

`CC(Oc1ccc2cc(-c3nn(C(C)C)c4ncnc(N)c34)ccc2c1)c1ccccc1` (stereo not drawn) [Compound 53, 1-isopropyl-3-(6-(1-phenylethoxy)naphthalen-2-yl)-1H-pyrazolo[3,4-d]pyrimidin-4-amine] was tested, and the inhibition at 3 µM [1] was 98% and the inhibition at 3 µM [2] was 57%.

For `CC(C)n1nc(-c2ccc3cc(OCc4ccc(C(C)(C)C)cc4)ccc3c2)c2c(N)ncnc21` [Compound 54, 3-(6-(4-tert-butylbenzyloxy)naphthalen-2-yl)-1-isopropyl-1H-pyrazolo[3,4-d]pyrimidin-4-amine], the inhibition at 3 µM [1] was 101% and the inhibition at 3 µM [2] was 77%.

`CC(C)n1nc(-c2ccc3cc(OCc4ccncc4)ccc3c2)c2c(N)ncnc21` [Compound 55, 1-isopropyl-3-(6-(pyridin-4-ylmethoxy)naphthalen-2-yl)-1H-pyrazolo[3,4-d]pyrimidin-4-amine] gave an inhibition at 3 µM [1] of 100% and an inhibition at 3 µM [2] of 94%.

Compound `CC(C)n1nc(-c2ccc3cc(OCc4ccc(Cl)cc4)ccc3c2)c2c(N)ncnc21` [Compound 56, 3-(6-(4-chlorobenzyloxy)naphthalen-2-yl)-1-isopropyl-1H-pyrazolo[3,4-d]pyrimidin-4-amine] has an inhibition at 3 µM [1] of 93% and an inhibition at 3 µM [2] of 73%.
